According to patent US6489118B2, “Allergenic proteins and peptides from dog dander and uses therefor” (ImmuLogic Pharmaceutical Corporation, priority 1992, dated 2002):

Tests used:
[1] = test system: human T cell lines primed with recombinant Can f I; assay: Secondary human T cell proliferation assay (3H thymidine incorporation); type: cell-based; conditions: for percentage of positive responders (T cell stimulation index of at least two): tested dog allergic individuals
Description: In one embodiment, peptides which have Can f I or Can f II T cell stimulating activity (i.e., the peptide comprises at least one T cell epitope) can be identified using an algorithm which predicts the presence of T cell epitopes in a protein sequence, such as the algorithm described by Hill et al., Journal of Immunology, 147:189-197 (1991). The algorithm of Hill et al. predicts the location of T cell epitopes in a protein by the presence of certain patterns within the sequence which are likely to bind MHC and therefore may contain T cell epitopes. Based on the Hill et al. algorithm, two 13 amino acid peptides (discussed in Example 10) have been identified and produced synthetically. Such peptides were tested for T cell activity as described above (e.g., by measuring cellular uptake of tritiated thymidine). Specifically, in Example 10, human T cell stimulating activity was tested by culturing T cells obtained from an individual sensitive to Can f I (i.e., an individual who has an IgE mediated immune response to Can f I) with a peptide derived from Can f I and proliferation of T cells in response to the peptide was determined, e.g., by measuring cellular uptake of tritiated thymidine. Stimulation indices for responses by T cells to peptides were calculated as the maximum CPM in response to a peptide divided by the control CPM. A stimulation index (S.I.) equal to or greater than two times the background level was considered “positive”. Positive results were used to calculate the mean stimulation index for each peptide for the group of patients tested (See FIG. 25). Preferred peptides of this invention comprise at least one T cell epitope and have a mean T cell stimulation index of greater than or equal to 2.0. A peptide having a mean T cell stimulation index of greater than or equal to 2.0 in a significant number of dog dander allergen sensitive patients tested is considered useful as a therapeutic agent. Preferred peptides have a mean T cell stimulation index of at least 2.5, more preferably at least 3.0, more preferably at least 3.5, more preferably at least 4.0, more preferably at least 5.0 and most preferably at least about 6. For example, peptides having a Can f I activity and having a mean T cell stimulation index of at least 5, as indicated by data shown in FIG. 25, include Construct 1 (SEQ ID NO: 105), Construct 2 (SEQ ID NO: 106), and Construct 3 (SEQ ID NO:107). T cell epitopes can also be predicted and determined as described above for peptides derived from Can f II.
In addition, preferred peptides have a positivity index (P.I.) of at least about 60, more preferably about 100, more preferably at least about 200 and most preferably at least about 300. The positivity index for a peptide is determined by multiplying the mean T cell stimulation index by the percent of individuals, in a population of individuals sensitive to dog dander allergens (e.g., preferably a population of at least 12 individuals, more preferably a population of at least 30 individuals or more), who have a T cell stimulation index to such peptide of at least 2.0. Thus, the positivity index represents both the strength of a T cell response to a peptide (S.I.) and the frequency of a T cell response to a peptide in a population of individuals sensitive to dog dander allergens.
In order to perform in vitro assays of human T cell proliferative response to Can f I and the five Can f I peptides described above, whole blood obtained from subjects allergic to Can f I in a skin prick test was passed through a Lymphocyte Separation Media (LSM) to remove platelets, red blood cells and granulocytes. The resulting peripheral blood mononuclear cells (PBMC) were stimulated with 50 μg/ml of recombinant Can f I produced as described in Example 2 for 6 days in RPMI 1640 medium supplemented with 5% heat inactivated human AB serum, 2 mM L-glutamine,10 mM HEPES, 50 μM 2-mercapto-ethanol and 100 U/ml penicillin and streptomycin. […]

human IgE [2] = assay: Direct binding of human IgE to recombinant Can f I by ELISA
Description: An ELISA plate (IMMULON II Dynatech, Chantilly, Va.) was coated with bacterially expressed recombinant Can f I, (rCan f I) at 0.5 μg/well in PBS-Tween and incubated overnight at 4° C. The coating antigen was removed and the wells were blocked with 0.5% gelatin in PBS, 200 μl/well for two hours at room temperature. Plasma from a skin test positive dog allergic patient, #901, was serially diluted with PBS-Tween and 100 μl was added per well and incubated overnight at 4° C. (the plasma dilutions were tested in duplicate). The second antibody (biotinylated goat anti-human IgE 1:1000, Kirkegaard & Perry Laboratories) was added at 100 μl/well for one hour at room temperature. This solution was removed and streptavidin-HRPO at 1:10,000, (Southern Biotecnology Associates, Inc. Birmingham, Ala.) was added for one hour at room temperature. TMB Membrane Peroxidase Substrate system (Kirkegaard & Perry Laboratories) was freshly mixed and added at 100 μl. The color was allowed to develop for 2-5 minutes. The reaction was stopped by the addition of 100 μl/well of 1M phosphoric acid. The plate was read on a Mircoplate EL 310 Autoreader (Biotek Instruments, Winooski, Vt.) with a 450 nm filter. The absorbance levels of duplicate wells were averaged. […] A known negative patient (#250) was also tested and shown to be negative by this assay.

human IgE [3] = assay: Western blot of protein preparations probed with patient plasma IgE; type: binding; conditions: plasma of dog allergic patient #901, 1:20 dilution; 5 μg/lane
Description: Western Blot analysis of four different protein preparations as potential sources Can f I was performed. The four different prepparations used for Western blotting were: dog hair extract, dog saliva, bacterially expressed rCan f I (used for the ELISA) and rCan f I as expressed in a mammalian cell culture system. These preparations were loaded on a 15% acrylamide SDS-PAGE (lanes 1-4, respectively) at 5 μg/lane. The protein concentrations were based on the Bicinchoninic acid (BCA) assay (Pierce, Rockford, Ill.). Following electrophoresis, the proteins were transferred to nitrocellulose and stained with India Ink. The nitrocellulose sections were blocked by incubation in Tween solution with 1% milk/1% BSA for 30 minutes room temperature, then probed with patient #901 plasma or negative control patient #250 at a 1:20 dilution in tween mild solution. This first antibody incubation was carried out overnight at room temperature. Biotinylated goat anti-human IgE (KPL) was used as the second antibody at a 1:5000 dilution for a two hour incubation. Streptavidin-HRPO (1:20,000 dilution) and the ECL Western Blot Detection system (Amersham, Arlington Heights, Ill.) were used for detection by chemiluminescence. A 20 second exposure was performed and the film developed. The results from this assay show no recognition of the protein preparations by patient #250 IgE. […]

human IgE [4] = assay: Direct binding ELISA of human IgE to native and recombinant Can f II
Description: Plasma samples from 14 dog-allergic patients (skin test 4+) were assayed for IgE binding to native Can f II and rCan f II. An ELISA plate (Immulon II Dynatech, Chantilly, Va.) was coated with native and bacterially expressed recombinant Can f II at 0.5 μg/well in PBS-Tween and incubated overnight at 4° C. The coating antigen was removed and the wells were blocked with 0.5% gelatin in PBS, 200 μl/well for two hours at room temperature. Binding of human IgE to the coating antigen was detected using biotinylated goat-anti-human IgE, streptavidin linked to peroxidase and TMB substrate. Reactions were read on a plate reader at 450 nm (A450). Of 14 plasma samples tested for IgE to native Can f II, 5 contained detectable antibody binding (FIG. 22A), with plasma from patients #901 and #227 containg the highest levels. Similarly, of 23 plasma samples tested for IgE to recombinant, bacterially expressed Can f II, several contained detectable antibody binding (FIGS. 22B and C).

[5] = test system: IgE binding to dog dander extracts; conditions: RAST analysis; cited from earlier work
[6] = test system: IgE of dog allergic patients; conditions: purified allergen; cited from earlier work

With “Construct 2: recombinant fragment of Can f I, amino acids 56 through 108 (SEQ ID NO: 106), expressed in E. coli (TVVLHKTSEPGKYTAYEGQRVVFIQPSPVRDHYILYCEGELHGRQIRMAKLLG)” the “percentage of positive responders (T cell stimulation index of at least two)” value [1] was 73%.

For “rCan f I: bacterially expressed recombinant Can f I dog allergen with His6 reporter group”, the “percentage of positive responders (T cell stimulation index of at least two)” value [1] was 89%, the “IgE binding level relative to background” value (human IgE [2]; plasma of dog allergic patient #901 at 1/162 dilution, antigen 0.5 μg/well) was “two-fold above background” and the “IgE binding, negative control patient” value (human IgE [2]; plasma of known negative patient #250) was “negative”. The “IgE binding on Western blot” value (human IgE [3]) was “distinct binding”.

For “Construct 3: recombinant fragment of Can f I, amino acids 90 through 148 (SEQ ID NO: 107), expressed in E. coli”, the “percentage of positive responders (T cell stimulation index of at least two)” value [1] was 82%.

For “A0095: 13 amino acid synthetic peptide, Can f I amino acids 7 through 19 (SEQ ID NO:108) (GKWYLKAMTADQE) [Construct A0095]”, the “positivity index (mean S.I. x percent positive responders)” value ([1]; FIG. 10) was 129, the “mean T cell stimulation index (S.I.)” value ([1]; mean of positive responses (S.I. >= 2), T cell lines from dog allergic patients primed with rCan f I, FIG. 25) was 3.0 and the “percentage of positive responders (T cell stimulation index of at least two)” value [1] was 43%.

With “Construct 1: recombinant fragment of Can f I, amino acids 1 through 65 (SEQ ID NO: 105), expressed in E. coli with His6” the “percentage of positive responders (T cell stimulation index of at least two)” value [1] was 64%.

In the case of “A0096: 13 amino acid synthetic peptide, Can f I amino acids 42 through 54 (SEQ ID NO:109) (AKITMLTNGQCQN) [Construct A0096]”, the “percentage of positive responders (T cell stimulation index of at least two)” value [1] is reported as 43%.

In the case of “mammalian expressed rCan f I: recombinant Can f I expressed in a mammalian cell culture system (NIH 3T3), COOH-terminal His6”, the “IgE binding on Western blot” value (human IgE [3]) is reported as “extremely faint”.

B1: Can f II: minor dog dander allergen, affinity purified native protein (de Groot et al.) (protein)
chain: EGNHEEPQGGLEELSGRWHSVALASNKSDLIKPWGHFRVFIHSMSAKDGNLHGDILIPQDGQCEKVSLTAFKTATSNKFDLEYWGHNDLYLAEVDPKSYLILYMINQYNDDTSLVAHLMVRDLSRQQDFLPAFESVCEDIGLHKDQIVVLSDDDRCQGSRD
In the case of B1, the “number of plasma samples with detectable IgE antibody binding” value (human IgE [4]; of 14 plasma samples from dog-allergic patients (skin test 4+), FIG. 22A) is given as 5, the “competition with the IgE directed against dog dander extract” value [5] is given as 23% and the “dog allergic patients whose IgE reacts with the allergen” value [6] is given as 66%.

B2: recombinant, bacterially expressed Can f II: bacterially expressed recombinant Can f II with His6 reporter group (protein)
chain: B1 chain
modifications: left off: small tags and cut ends
notes: bacterially expressed recombinant Can f II with His6 reporter group
In the case of B2, the “number of plasma samples with detectable IgE antibody binding” value (human IgE [4]; of 23 plasma samples, FIGS. 22B and C) is reported as “several”.

B3: Can f I: major dog allergen of Canis familiaris; mature protein of SEQ ID NO: 2; immunoaffinity purified in cited work (protein)
chain: MKTLLLTIGFSLIAILQAQDTPALGKDTVAVSGKWYLKAMTADQEVPEKPDSVTPMILKAQKGGNLEAKITMLTNGQCQNITVVLHKTSEPGKYTAYEGQRVVFIQPSPVRDHYILYCEGELHGRQIRMAKLLGRDPEQSQEALEDFREFSRAKGLNQEILELAQSETCSPGGQ
For B3, the “depletion of IgE binding to dog dander extracts” value [5] is listed as 50-70%.
